Experimental data from publication PMC9967275, “Screening the Pathogen Box to Discover and Characterize New Cruzain and TbrCatL Inhibitors” (Pathogens, 2023).

How the values were obtained:
[1] = molecular target: cruzain (Trypanosoma cruzi, UniProt P25779); assay: biochemical; conditions: for Cruzain 0’ Inhibition / Cruzain 10’ Inhibition: sheet "Screening results"
Summary of the method: (§1)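 Recombinant enzymes assayed by Z-Phe-Arg-AMC cleavage at 25 °C, fluorescence 340/440 nm over 5–7 min, with 10 min or no enzyme–compound preincubation.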

[2] = molecular target: T1, TbrCatL (Trypanosoma brucei rhodesiense, UniProt Q95PM0); assay: TbrCatL enzymatic inhibition assay (cleavage of fluorogenic substrate Z-FR-AMC); assay type: biochemical; conditions: for TbrCatL 0’ Inhibition / TbrCatL 10’ Inhibition: sheet "Screening results"
T1 construct: Conor Caffrey (University of California San Diego)
Summary of the method: as §1

[3] = 0’ (pre-incubation time), Pathogen Box screening results
[4] = 10’ (pre-incubation time), Pathogen Box screening results
[5] = 0’ (no pre-incubation), sheet Screening results
[6] = 10’ (pre-incubation), sheet Screening results
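Also: at 5 µM compound concentration.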

cruzain, sequence (P25779 123-337 limits assumed): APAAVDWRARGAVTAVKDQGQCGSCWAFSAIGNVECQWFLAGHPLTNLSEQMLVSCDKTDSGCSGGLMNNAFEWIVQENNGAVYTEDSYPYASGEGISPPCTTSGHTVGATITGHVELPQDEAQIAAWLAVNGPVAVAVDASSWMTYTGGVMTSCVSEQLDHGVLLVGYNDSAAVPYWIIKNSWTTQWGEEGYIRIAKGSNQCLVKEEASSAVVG
T1 sequence (Q95PM0 entry or part of it): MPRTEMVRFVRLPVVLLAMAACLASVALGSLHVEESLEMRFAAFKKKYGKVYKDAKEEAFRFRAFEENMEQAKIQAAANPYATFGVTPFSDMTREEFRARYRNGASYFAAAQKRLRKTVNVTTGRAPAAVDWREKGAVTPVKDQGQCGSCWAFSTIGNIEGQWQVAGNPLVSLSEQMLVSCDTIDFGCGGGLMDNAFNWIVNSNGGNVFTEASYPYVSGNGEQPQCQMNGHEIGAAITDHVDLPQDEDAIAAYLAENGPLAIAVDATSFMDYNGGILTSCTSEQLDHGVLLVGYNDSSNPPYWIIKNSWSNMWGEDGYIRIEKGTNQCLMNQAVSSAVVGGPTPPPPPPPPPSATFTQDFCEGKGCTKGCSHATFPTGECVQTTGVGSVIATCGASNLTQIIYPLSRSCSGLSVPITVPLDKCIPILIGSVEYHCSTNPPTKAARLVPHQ

Row | Compound | Cruzain Inhibition 0’ [1, 5] | Cruzain Inhibition 10’ [1, 6] | TbrCatL Inhibition 0’ [2, 5] | TbrCatL Inhibition 10’ [2, 6] | also measured
1 | Cc1nn(C(=O)Nc2cccc(C(F)(F)F)c2)c(C)c1Sc1ncccn1 [MMV688552] |  |  |  |  | Cruzain Inhibition 0’ [1, 3]: 2.3%; Cruzain Inhibition 10’ [1, 4]: 0.1%; TbrCatL Inhibition 0’ [2, 3]: -0.1%; TbrCatL Inhibition 10’ [2, 4]: 5%
2 | O=C(NCc1ccoc1)N1CCN(Cc2ccc3c(c2)OCO3)CC1 [MMV688553] | -7% | 0.9% | -1.2% | -6.4% | 
3 | CNc1snc(C)c1C(=O)NCCOc1ccc(OC)cc1 [MMV688554] | -8% | -4.6% | -7% | -8% | 
4 | O=C(NCc1ccco1)N1CCN(Cc2ccc(Cl)s2)CC1 [MMV688555] | -0.7% | 0.5% | 6% | 0.9% | 
5 | NCC(c1cccs1)S(=O)(=O)c1ccccc1 (stereo not shown) [MMV688557] |  |  |  |  | Cruzain Inhibition 0’ [1, 3]: 2.3%; Cruzain Inhibition 10’ [1, 4]: 0.1%; TbrCatL Inhibition 0’ [2, 3]: -0.6%; TbrCatL Inhibition 10’ [2, 4]: 1.2%
6 | CN1CCC(c2cc(-c3ccncc3)c(-c3ccc(F)cc3)[nH]2)CC1 [MMV688703] |  |  |  |  | Cruzain 0’ Inhibition ([1]; 0’ (pre-incubation time)): 3.7%; Cruzain 10’ Inhibition ([1]; 10’ (pre-incubation time)): 1.9%; TbrCatL 0’ Inhibition ([2]; 0’ (pre-incubation time)): 6%; TbrCatL 10’ Inhibition ([2]; 10’ (pre-incubation time)): 3.6%
7 | Cc1cc2nc(NC(=O)C(C)(C)C)nc(Cl)c2n1Cc1ccc(Cl)cc1 [MMV688704] | 11% | 10% | 16% | 16% | 
8 | CO/N=C(/C(=O)OC)c1ccccc1CO/N=C(/C)c1cccc(C(F)(F)F)c1 [MMV688754] |  |  |  |  | Cruzain Inhibition 0’ [1, 3]: 0.9%; Cruzain Inhibition 10’ [1, 4]: 3.5%; TbrCatL Inhibition 0’ [2, 3]: -4%; TbrCatL Inhibition 10’ [2, 4]: -1.2%
9 | O=[N+]([O-])c1cn2c(n1)OC[C@@H](OCc1ccc(OC(F)(F)F)cc1)C2 [MMV688755] |  |  |  |  | Cruzain Inhibition 0’ [1, 3]: 3%; Cruzain Inhibition 10’ [1, 4]: 6.6%; TbrCatL Inhibition 0’ [2, 3]: -0.5%; TbrCatL Inhibition 10’ [2, 4]: 4%
10 | CC(=O)NC[C@H]1CN(c2ccc(N3CCSCC3)c(F)c2)C(=O)O1 [MMV688756] | 14% | 11% | 10% | 7% | 
11 | CS(=O)(=O)c1ccc(C(=O)N(CC2CCCO2)c2nc3ccccc3s2)cc1[N+](=O)[O-] (stereo not shown) [MMV688761] | -0.3% | 5.7% | -0.9% | 1.2% | 
12 | c1ccc(-c2[nH]c3ccccc3c2C(c2ccccn2)N2CCCC2)cc1 (stereo not shown) [MMV688762] | 3.2% | 1% | 3.2% | 1.8% | 
13 | CNc1nnc(Sc2cnn(-c3ccccc3)c(=O)c2Cl)s1 [MMV688763] | 6% | 9% | 7.5% | 1.7% | 
14 | COc1ccc(-c2onc(C(F)(F)F)c2-c2ccc(Cl)cc2)c(O)c1 [MMV688766] |  |  |  |  | Cruzain 0’ Inhibition ([1]; 0’ (pre-incubation time)): 1%; Cruzain 10’ Inhibition ([1]; 10’ (pre-incubation time)): -2.5%; TbrCatL 0’ Inhibition ([2]; 0’ (pre-incubation time)): 0%; TbrCatL 10’ Inhibition ([2]; 10’ (pre-incubation time)): -5%
15 | Cc1[nH]c2ccccc2c1C(c1cccs1)N1CCN(C)CC1 (stereo not shown) [MMV688768] | 2.7% | 9% | 0.9% | 2.4% | 
16 | Cc1ccccc1C(=O)N1NC(=Nc2ccccc2)SC1(C)C [MMV688771] |  |  |  |  | Cruzain 0’ Inhibition ([1]; 0’ (pre-incubation time)): 29%; Cruzain 10’ Inhibition ([1]; 10’ (pre-incubation time)): 8%; TbrCatL 0’ Inhibition ([2]; 0’ (pre-incubation time)): -5%; TbrCatL 10’ Inhibition ([2]; 10’ (pre-incubation time)): 0.3%
17 | O=C(Cn1ccnc1[N+](=O)[O-])NCc1ccccc1 [MMV688773] | 19% | 4% | 4.3% | 3.7% | 
18 | CC[C@@H]([C@H](C)O)n1ncn(-c2ccc(N3CCN(c4ccc(OC[C@@H]5CO[C@@](Cn6cncn6)(c6ccc(F)cc6F)C5)cc4)CC3)cc2)c1=O [MMV688774] | 9% | 10% | 3.6% | 8% | 
19 | Cc1cccnc1NC(=O)c1cccc(OCc2c(C)noc2C)c1 [MMV688793] | 16% | 10% | 14% | 10% | 
20 | O=C(NCCc1ccn(-c2ccccc2)n1)C1CCCCC1 [MMV688795] |  |  |  |  | Cruzain 0’ Inhibition ([1]; 0’ (pre-incubation time)): 3.2%; Cruzain 10’ Inhibition ([1]; 10’ (pre-incubation time)): 4%; TbrCatL 0’ Inhibition ([2]; 0’ (pre-incubation time)): 5%; TbrCatL 10’ Inhibition ([2]; 10’ (pre-incubation time)): 5.4%
21 | O=C(NCc1nnc2n1CCCCC2)c1ccc(-c2ccc(F)cc2)o1 [MMV688796] | 15% | 7% | 7% | -2.4% | 
22 | CC1CCCCN1C(=O)NCCc1coc(-c2ccc(F)cc2)n1 (stereo not shown) [MMV688797] | 15% | 10% | 16% | 15% | 

Row | Compound | Cruzain Inhibition 0’ [1, 5] | Cruzain Inhibition 10’ [1, 6] | TbrCatL Inhibition 0’ [2, 5] | TbrCatL Inhibition 10’ [2, 6] | also measured
23 | CS(=O)(=O)c1ccccc1C(=O)N(Cc1ccccc1)c1ccccc1 [MMV688798] | 13% | 1.2% | 1.5% | -1.9% | 
24 | COc1ccc2nccc(NC(=O)C3CCN(CCc4ccc(Cl)cc4)CC3)c2n1 [MMV688844] |  |  |  |  | Cruzain 0’ Inhibition ([1]; 0’ (pre-incubation time)): 1.4%; Cruzain 10’ Inhibition ([1]; 10’ (pre-incubation time)): -1.1%; TbrCatL 0’ Inhibition ([2]; 0’ (pre-incubation time)): 4%; TbrCatL 10’ Inhibition ([2]; 10’ (pre-incubation time)): -1.5%
25 | O=C(N[C@H](Cc1ccccc1)C(=O)Nc1ccccc1N1CCOCC1)c1cccs1 [MMV688845] |  |  |  |  | Cruzain 0’ Inhibition ([1]; 0’ (pre-incubation time)): 1%; Cruzain 10’ Inhibition ([1]; 10’ (pre-incubation time)): 4.5%; TbrCatL 0’ Inhibition ([2]; 0’ (pre-incubation time)): -0.3%; TbrCatL 10’ Inhibition ([2]; 10’ (pre-incubation time)): 2.3%
26 | Cc1ccccc1CN1CCC(O)(c2ccc(Cl)c(C(F)(F)F)c2)CC1 [MMV688846] | 10% | 3% | 2.5% | -17% | 
27 | CC(C)(C)n1nc(Cc2ccc(F)c(Cl)c2)c2c(N)ncnc21 [MMV688852] | 6% | 0.5% | -2.7% | -13% | 
28 | CCOc1ccc2cc(-c3nn(C(C)(C)C)c(N)c3C(N)=O)cnc2c1 [MMV688853] | 5.4% | 4% | 7% | -4% | 
29 | CCOc1ccc2cc(-c3nn(CC4CCN(C)CC4)c4ncnc(N)c34)ccc2c1 [MMV688854] | 27% | 11% | 2.7% | -5% | 
30 | CN1CCN(c2cc(-c3ccc(F)cc3)nc(-c3ccncc3)n2)CC1 [MMV688888] | 18% | 14% | 19% | 9% | 
31 | Clc1ccc(CCNc2cc(-c3ccccc3)nc3ncnn23)cc1 [MMV688889] | 15% | 14% | 20% | 13% | 
32 | COc1cc(Br)cc2cc(C(=O)Nc3cccc(C(F)(F)F)c3)c(=O)oc12 [MMV688891] |  |  |  |  | Cruzain 0’ Inhibition ([1]; 0’ (pre-incubation time)): -4.4%; Cruzain 10’ Inhibition ([1]; 10’ (pre-incubation time)): -0.7%; TbrCatL 0’ Inhibition ([2]; 0’ (pre-incubation time)): 0%; TbrCatL 10’ Inhibition ([2]; 10’ (pre-incubation time)): -2.6%
33 | OC[C@H]1O[C@@H](n2c3ccc(Cl)cc3c3c(-c4cc5ccccc5o4)ncnc32)C(O)[C@H]1O (stereo partly shown) [MMV688921] |  |  |  |  | Cruzain 0’ Inhibition ([1]; 0’ (pre-incubation time)): 4.7%; Cruzain 10’ Inhibition ([1]; 10’ (pre-incubation time)): 11%; TbrCatL 0’ Inhibition ([2]; 0’ (pre-incubation time)): 5.5%; TbrCatL 10’ Inhibition ([2]; 10’ (pre-incubation time)): 4.4%
34 | CCc1nn(C)c(C(=O)NCc2ccc(Oc3ccc(C)cc3)cc2)c1Cl [MMV688934] | 15% | 7.4% | 18% | 14% | 
35 | O=C(c1ccco1)N(CCCn1ccnc1)c1nc2c(Cl)cccc2s1 [MMV688936] | 5.6% | -0.2% | 19% | 0.6% | 
36 | CCOc1ccc(-c2nc(CNCCc3ccc(F)cc3)cs2)cc1 [MMV688938] |  |  |  |  | Cruzain 0’ Inhibition ([1]; 0’ (pre-incubation time)): 6%; Cruzain 10’ Inhibition ([1]; 10’ (pre-incubation time)): 12%; TbrCatL 0’ Inhibition ([2]; 0’ (pre-incubation time)): 3%; TbrCatL 10’ Inhibition ([2]; 10’ (pre-incubation time)): -3.6%
37 | Cc1ccc2nc(C)c(-c3ccn(Cc4ccccc4)n3)n2c1 [MMV688939] |  |  |  |  | Cruzain Inhibition 0’ [1, 3]: -1.4%; Cruzain Inhibition 10’ [1, 4]: -4%; TbrCatL Inhibition 0’ [2, 3]: -0.4%; TbrCatL Inhibition 10’ [2, 4]: -9%
38 | COc1cc(CN2CCC3(C=Cc4ccccc43)CC2)cc2c1OCO2 [MMV688941] |  |  |  |  | Cruzain 0’ Inhibition ([1]; 0’ (pre-incubation time)): 1.7%; Cruzain 10’ Inhibition ([1]; 10’ (pre-incubation time)): 6%; TbrCatL 0’ Inhibition ([2]; 0’ (pre-incubation time)): -3.2%; TbrCatL 10’ Inhibition ([2]; 10’ (pre-incubation time)): -4%
39 | CC(C)(C)C(O)C(Oc1ccc(-c2ccccc2)cc1)n1cncn1 (stereo not shown) [MMV688942] | 14% | 9% | 13% | -1.4% | 
40 | CC1COC(Cn2cncn2)(c2ccc(Oc3ccc(Cl)cc3)cc2Cl)O1 (stereo not shown) [MMV688943] | 13% | 10% | 15% | 4% | 
41 | Cc1cc(NC(=O)c2ccc(Oc3ccc(Cl)cc3O)o2)no1 [MMV688955] |  |  |  |  | Cruzain 0’ Inhibition ([1]; 0’ (pre-incubation time)): -9%; Cruzain 10’ Inhibition ([1]; 10’ (pre-incubation time)): -13%; TbrCatL 0’ Inhibition ([2]; 0’ (pre-incubation time)): -6%; TbrCatL 10’ Inhibition ([2]; 10’ (pre-incubation time)): -12%
42 | CC(=O)OC[C@H]1O[C@@H]([S-])[C@H](OC(C)=O)[C@@H](OC(C)=O)[C@@H]1OC(C)=O.CC[PH+](CC)CC.[Au] [MMV688978] |  |  |  |  | Cruzain Inhibition 0’ [1, 3]: -20%; Cruzain Inhibition 10’ [1, 4]: -71%; TbrCatL Inhibition 0’ [2, 3]: -13%; TbrCatL Inhibition 10’ [2, 4]: -63%
43 | CCc1cc(=O)n(C)c(SC(C)C(=O)Nc2ccc(F)cc2)n1 (stereo not shown) [MMV688980] |  |  |  |  | Cruzain 0’ Inhibition ([1]; 0’ (pre-incubation time)): -3.8%; Cruzain 10’ Inhibition ([1]; 10’ (pre-incubation time)): -0.6%; TbrCatL 0’ Inhibition ([2]; 0’ (pre-incubation time)): -11%; TbrCatL 10’ Inhibition ([2]; 10’ (pre-incubation time)): -14%
